Measured values from patent publication USRE49698E1, “Substituted dihydroquinazolines” (AiCuris Anti-infective Cures GmbH, priority 2003, dated 2023).
Where a name gives a salt, the structure may show the parent alone. Read-outs that look alike come from different tables or passages of the source.

What was measured:
HCMV = test: Anti-HCMV (anti-human cytomegalovirus) cytopathogenicity test; format: cell-based
Protocol: (§1) Anti-HCMV (Anti-Human Cytomegalovirus) Cytopathogenicity Tests
(§2) The test compounds are employed as 50 millimolar (mM) solutions in dimethyl sulphoxide (DMSO). Ganciclovir®, Foscarnet® and Cidofovir® are used as reference compounds. After addition of in each case 2 μl of the 50, 5, 0.5 and 0.05 mM DMSO stock solutions to 98 μl portions of cell culture medium in row 2 A-H for duplicate determinations, 1:2 dilutions are carried out with 50 μl portions of medium up to row 11 of the 96-well plate. The wells in rows 1 and 12 each contain 50 μl of medium. In 150 μl of a suspension of 1×10^4 cells (human prepuce fibroblasts [NHDF]) are pipetted into each of the wells (row 1=cell control) and, in rows 2-12, a mixture of HCMV-infected and uninfected NHDF cells (M.O.I.=0.001-0.002), i.e. 1-2 infected cells per 1000 uninfected cells. Row 12 (without substance) serves as virus control. The final test concentrations are 250-0.0005 μM. The plates are incubated at 37° C./5% CO2 for 6 days, i.e. until all the cells are infected in the virus controls (100% cytopathogenic effect [CPE]). The wells are then fixed and stained by adding a mixture of formalin and Giemsa's dye (30 minutes), washed with double-distilled water and dried in a drying oven at 50° C. The plates are then assessed visually using an overhead microscope (Plaque Multiplier from Technomara).
The following data can be acquired from the test plates:
SI (selectivity index)=CC50 (NHDF)/EC50 (HCMV).

[1] = Cytostatic effect on NHDF cells in the anti-HCMV cytopathogenicity test plates; format: cell-based; conditions: human, human prepuce fibroblasts (NHDF cells), 6 days incubation, visual assessment, concentration at which no visible cytostatic effects are evident vs untreated cell control
Protocol: as §1, §2
The following data can be acquired from the test plates: […]

[2] = Human betaherpesvirus 5, NHDF, 144 h; read-out: HCMV EC50
[3] = Human betaherpesvirus 5, NHDF, 144 h, read-out: HCMV EC50

Structure (SMILES)	EC50 (HCMV; [2])	SI HCMV (selectivity index) (HCMV; CC50 (NHDF)/EC50 (HCMV))	EC50 (HCMV; [3])	CC50 at 6 days [1]
COc1cccc(N2CCN(C3=Nc4c(F)cccc4C(CC(=O)O)N3c3cc(C(F)(F)F)ccc3OC)CC2)c1 (single isomer, unassigned) [Example 15, {8-Fluoro-2-[4-(3-methoxyphenyl)-1-piperazinyl]-3-[2-methoxy-5-(trifluoromethyl)phenyl]-3,4-dihydro-4-quinazolinyl}acetic acid]	0.002 µM			
COc1ccc(Cl)cc1N1C(N2CCN(c3ccc(F)cc3)CC2)=Nc2c(F)cccc2C1CC(=O)O (single isomer, unassigned) [Example 23, {8-Fluoro-2-[4-(4-fluorophenyl)-1-piperazinyl]-3-[6-methoxy-3-chlorophenyl]-3,4-dihydro-4-quinazolinyl}acetic acid hydrochloride]		12632	0.002 µM	24 µM
NC(=O)c1ccc2c(c1)C(CC(=O)O)N(c1cccc(C(F)(F)F)c1)C(N1CCN(c3cccc(Cl)c3)CC1)=N2 (stereo not shown) [Example 29]	0.07 µM	671		47 µM
COc1ccc(C(F)(F)F)cc1N1C(N2CCN(c3ccc(F)cc3)CC2)=Nc2c(F)cccc2C1CC(=O)O (single isomer, unassigned) [Example 19, {8-Fluoro-2-[4-(4-fluorophenyl)-1-piperazinyl]-3-[2-methoxy-5-(trifluoromethyl)phenyl]-3,4-dihydro-4-quinazolinyl}acetic acid]	0.002 µM	8947		17 µM
O=C(O)CC1c2cccc(F)c2N=C(N2CCN(c3ccc(F)cc3)CC2)N1c1cccc(C(F)(F)F)c1 (single isomer, unassigned) [Example 2, {8-Fluoro-2-[4-(4-fluorophenyl)-1-piperazinyl]-3-[3-(trifluoromethyl)phenyl]-3,4-dihydro-4-quinazolinyl}acetic acid]	0.016 µM	750		12 µM
Cc1cccc(N2CCN(C3=Nc4c(F)cccc4C(CC(=O)O)N3c3cccc(C(F)(F)F)c3)CC2)c1 (single isomer, unassigned) [Example 9, {8-Fluoro-2-[4-(3-methylphenyl)-1-piperazinyl]-3-[3-(trifluoromethyl)phenyl]-3,4-dihydro-4-quinazolinyl}acetic acid hydrochloride]		750	0.02 µM	15 µM
